Test results published in patent US20230348369A1 (Cytokinetics, Inc., priority 2020, published 2023).
Like-named read-outs stand apart in the source and are kept apart here.

Columns and labels:
human NAMPT = human NAMPT (Homo sapiens, UniProt P43490); test: Human recombinant enzyme assay (NMN fluorescence biochemical assay, activation of NAMPT)
How it was run: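 NMN production is detected fluorometrically (Ex 355/Em 460 nm) 40 min after acetophenone, KOH and formic acid derivatization. Reactions ran 60 min at ambient temperature: 6 nM human NAMPT, nicotinamide 150 μM, PRPP 20 μM, ATP 2.5 mM, buffered at pH 7.2 with 50 mM HEPES plus DTT, CHAPS, NaCl and 100 mM MgCl2.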

endogenous NAMPT = target: T1, endogenous NAMPT (Homo sapiens, UniProt P43490); test: Cellular NAD+ modulation assay in neuroblastoma SH-SY5Y cells; format: cell-based
T1 construct: stimulate the endogenous NAMPT in a native cellular environment; endogenous in cells; host or cells: SH-SY5Y neuroblastoma cells
Description: The compounds described herein were also assayed for their ability to stimulate the endogenous NAMPT in a native cellular environment in the cellular NAD+ modulation assay, which measures the ability of the compound to modulate cellular NAD levels. Increased levels of NAD are expected by compounds that permeate the cells and activate the catalytic activity of the endogenous NAMPT.
Neuroblastoma SH-SY5Y cells were grown in 1:1 mixture of Eagle's Minimum Essential Medium and F12 Medium, along with 10% fetal bovine serum, in a humidified incubator with an atmosphere of 95% air and 5% CO2 at 37° C. The assays were initiated by plating 20 μL of SH-SY5Y cells in culture medium with 0.1% fetal bovine serum, at a density of 5000 cells per well to a 384-well Corning™ BioCoat™ Poly-D-Lysine Multiwell Plates. The plates were incubated in the 37° C. incubators for a period of 5 hours. Compounds in DMSO were added to the plates in a volume of 120 nL using the Labcyte Echo Liquid Handlers. […] The plates are then incubated for 40 hours. 30 μL of a readout-solution containing 0.2 U/mL Diaphorase enzyme, 40 uM resazurin, 10 uM FMN, 0.8 U/mL Alcohol dehydrogenase, 3% ethanol, 0.4 mg/mL bovine serum albumin, 0.2% Triton X-100 in 100 mM Tris-HCl, 30 mM EDTA, pH 8.4. The plates were read for fluorescence (Excitation/Emission=540 nm/590 nm) using an EnVision plate reader after 60 mins of incubation at ambient temperature.

[1] = Table A, human recombinant NAMPT, NMN formation, 60 min
[2] = Table A, human recombinant NAMPT, NMN formation, 60 min, read-out: EC50 Human
[3] = Table B, SH-SY5Y cells, cellular NAD levels, doxorubicin, 40 hours
[4] = Table B, SH-SY5Y cells, cellular NAD levels, doxorubicin, 40 hours, read-out: EC50

Sequence of human NAMPT (P43490 whole entry): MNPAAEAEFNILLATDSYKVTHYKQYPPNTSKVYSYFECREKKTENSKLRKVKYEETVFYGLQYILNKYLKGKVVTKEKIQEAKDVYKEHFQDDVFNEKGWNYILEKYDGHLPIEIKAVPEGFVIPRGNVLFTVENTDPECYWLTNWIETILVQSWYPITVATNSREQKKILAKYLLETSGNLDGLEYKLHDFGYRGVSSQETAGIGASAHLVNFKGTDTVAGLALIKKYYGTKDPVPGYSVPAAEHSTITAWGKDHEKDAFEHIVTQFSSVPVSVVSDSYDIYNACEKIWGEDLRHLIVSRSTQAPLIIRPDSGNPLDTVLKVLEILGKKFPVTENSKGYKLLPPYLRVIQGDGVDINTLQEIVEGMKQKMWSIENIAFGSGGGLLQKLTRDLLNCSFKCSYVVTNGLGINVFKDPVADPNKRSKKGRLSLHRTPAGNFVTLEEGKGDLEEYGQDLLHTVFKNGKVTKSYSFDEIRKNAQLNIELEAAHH
T1 sequence (P43490 whole entry): as above

CC(C)(O)CN1CCN(C(=O)[C@H]2C[C@@]3(C[C@H](NC(=O)NCc4ccc(Cl)cc4)C3)C2)CC1 (single isomer, unassigned) [Compound 187]
EC50 (human NAMPT): 0.6 µM | EC50 (endogenous NAMPT): 0.2 µM

COc1ccc(CNC(=O)NC2CC3(C2)CC(C(=O)N(C)C2CCOC2)C3)cc1 (stereo in doubt) [Compound 79, (R)-6-(3-(4-methoxybenzyl)ureido)-N-methyl-N-(tetrahydrofuran-3-yl)spiro[3.3]heptane-2-carboxamide]
AC1.4 Human (human NAMPT; [1]): 1.4 µM | EC50 (human NAMPT; [2]): 39.8 µM | AC0.3 (endogenous NAMPT; [3]): 5.8 µM | EC50 (endogenous NAMPT; [4]): 5.8 µM

COc1ccc(CNC(=O)NC2CC3(C2)CC(NC(=O)OC(C)(C)C)C3)cc1 (stereo not shown) [Compound 7, tert-butyl (6-(3-(4-methoxybenzyl)ureido)spiro[3.3]heptan-2-yl)carbamate]
AC1.4 Human (human NAMPT; [1]): 5.1 µM | EC50 (human NAMPT; [2]): 26.3 µM | AC0.3 (endogenous NAMPT; [3]): 2.4 µM | EC50 (endogenous NAMPT; [4]): 4.7 µM

NC(=O)c1ccc(CNC(=O)NC2CC3(C2)CC(NC(=O)c2ccccc2)C3)cc1 (stereo not shown) [Compound 14, N-(6-(3-(4-carbamoylbenzyl)ureido)spiro[3.3]heptan-2-yl)benzamide]
AC1.4 Human (human NAMPT; [1]): 2.7 µM | EC50 (human NAMPT; [2]): 35.3 µM | AC0.3 (endogenous NAMPT; [3]): >20.1 µM | EC50 (endogenous NAMPT; [4]): ≥ 20.1 µM

O=C(NCCCCC1CCN(C(=O)c2ccccc2)CC1)NCc1ccc(Cl)cc1 [Compound 16, 1-(4-(1-benzoylpiperidin-4-yl)butyl)-3-(4-chlorobenzyl)urea]
EC50 (human NAMPT): 0.3 µM | AC1.4 Human (human NAMPT; [1]): 0.1 µM | EC50 (endogenous NAMPT): 0.1 µM | AC0.3 (endogenous NAMPT; [3]): 0.1 µM

NC(=O)c1ccc(CNC(=O)NCCCCC2CCN(C(=O)c3ccccc3)CC2)cc1 [Compound 19, 4-((3-(4-(1-benzoylpiperidin-4-yl)butyl)ureido)methyl)benzamide]
AC1.4 Human (human NAMPT; [1]): 0.1 µM | EC50 (human NAMPT; [2]): 1.8 µM | AC0.3 (endogenous NAMPT; [3]): 1.6 µM | EC50 (endogenous NAMPT; [4]): 1.3 µM

COc1ccc(CNC(=O)NCCCCC2CCN(C(=O)c3ccccc3)CC2)cc1 [Compound 20, 1-(4-(1-benzoylpiperidin-4-yl)butyl)-3-(4-methoxybenzyl)urea]
AC1.4 Human (human NAMPT; [1]): 0.2 µM | EC50 (human NAMPT; [2]): 4.7 µM | AC0.3 (endogenous NAMPT; [3]): 0.4 µM | EC50 (endogenous NAMPT; [4]): 13.9 µM

O=C(NCCCCC1CCN(C(=O)c2ccccc2)CC1)NCc1ccc(CO)cc1 [Compound 22, 1-(4-(1-benzoylpiperidin-4-yl)butyl)-3-(4-(hydroxymethyl)benzyl)urea]
AC1.4 Human (human NAMPT; [1]): 0.1 µM | EC50 (human NAMPT; [2]): 1.1 µM | AC0.3 (endogenous NAMPT; [3]): 0.4 µM | EC50 (endogenous NAMPT; [4]): 0.1 µM

O=C(NCCCCC1CCN(C(=O)c2ccccc2)CC1)NCc1cnco1 [Compound 23, 1-(4-(1-benzoylpiperidin-4-yl)butyl)-3-(oxazol-5-ylmethyl)urea]
AC1.4 Human (human NAMPT; [1]): 0.1 µM | EC50 (human NAMPT; [2]): 1.4 µM | AC0.3 (endogenous NAMPT; [3]): 0.3 µM | EC50 (endogenous NAMPT; [4]): 0.3 µM

CC(C)(C)OC(=O)N1CCC2(CC1)CC2CNC(=O)NCc1ccc(Cl)cc1 (stereo not shown) [Compound 27, tert-butyl 1-((3-(4-chlorobenzyl)ureido)methyl)-6-azaspiro[2.5]octane-6-carboxylate]
EC50 (human NAMPT): 21.5 µM | EC50 (endogenous NAMPT): 5.8 µM

CC(C)(C)OC(=O)N1CCC2(CC1)CC2CNC(=O)NCc1ccc(CO)cc1 (stereo not shown) [Compound 29, tert-butyl 1-((3-(4-(hydroxymethyl)benzyl)ureido)methyl)-6-azaspiro[2.5]octane-6-carboxylate]
EC50 (human NAMPT; [2]): 26.7 µM | EC50 (endogenous NAMPT; [4]): 2.2 µM

CC(C)(C)OC(=O)N1CCC2(CC1)CC2CNC(=O)NCc1ccc(C(N)=O)cc1 (stereo not shown) [Compound 33, tert-butyl 1-((3-(4-carbamoylbenzyl)ureido)methyl)-6-azaspiro[2.5]octane-6-carboxylate]
EC50 (human NAMPT; [2]): 19.8 µM | EC50 (endogenous NAMPT; [4]): 8.4 µM

COc1ccc(CNC(=O)NC2CC3(C2)CC(C(=O)N2CCCc4ccccc42)C3)cc1 (stereo not shown) [Compound 71, 1-(4-methoxybenzyl)-3-(6-(1,2,3,4-tetrahydroquinoline-1-carbonyl)spiro[3.3]heptan-2-yl)urea]
AC1.4 Human (human NAMPT; [1]): 0.1 µM | EC50 (human NAMPT; [2]): 1.5 µM | AC0.3 (endogenous NAMPT; [3]): 0.3 µM | EC50 (endogenous NAMPT; [4]): 0.9 µM

COc1ccc(CNC(=O)NC2CC3(C2)CC(C(=O)N2Cc4ccccc4C2)C3)cc1 (stereo not shown) [Compound 73, 1-(6-(isoindoline-2-carbonyl)spiro[3.3]heptan-2-yl)-3-(4-methoxybenzyl)urea]
AC1.4 Human (human NAMPT; [1]): 1.2 µM | EC50 (human NAMPT; [2]): 7.7 µM | AC0.3 (endogenous NAMPT; [3]): 0.8 µM | EC50 (endogenous NAMPT; [4]): 0.8 µM

COc1ccc(CNC(=O)NC2CC3(C2)CC(C(=O)N2CCc4ccccc42)C3)cc1 (stereo not shown) [Compound 74, 1-(6-(indoline-1-carbonyl)spiro[3.3]heptan-2-yl)-3-(4-methoxybenzyl)urea]
AC1.4 Human (human NAMPT; [1]): 0.8 µM | EC50 (human NAMPT; [2]): 13.3 µM | AC0.3 (endogenous NAMPT; [3]): 0.3 µM | EC50 (endogenous NAMPT; [4]): 0.5 µM

COc1ccc(CNC(=O)NC2CC3(C2)CC(C(=O)N2CCN(CC(C)(C)O)CC2)C3)cc1 (stereo not shown) [Compound 76, 1-(6-(4-(2-hydroxy-2-methylpropyl)piperazine-1-carbonyl)spiro[3.3]heptan-2-yl)-3-(4-methoxybenzyl)urea]
AC1.4 Human (human NAMPT; [1]): 0.7 µM | EC50 (human NAMPT; [2]): 17.8 µM | AC0.3 (endogenous NAMPT; [3]): 5.9 µM | EC50 (endogenous NAMPT; [4]): 4.7 µM

COc1ccc(CNC(=O)NC2CC3(C2)CC(C(=O)N2CCCc4cc(C)ccc42)C3)cc1 (stereo not shown) [Compound 84, 1-(4-methoxybenzyl)-3-(6-(6-methyl-1,2,3,4-tetrahydroquinoline-1-carbonyl)spiro[3.3]heptan-2-yl)urea]
AC1.4 Human (human NAMPT; [1]): 0.1 µM | EC50 (human NAMPT; [2]): 2.8 µM | AC0.3 (endogenous NAMPT; [3]): 5.3 µM | EC50 (endogenous NAMPT; [4]): 12.7 µM

COc1ccc(CNC(=O)NC2CC3(C2)CC(C(=O)N2CCOc4ccccc42)C3)cc1 (stereo not shown) [Compound 85, 1-(6-(3,4-dihydro-2H-benzo[b][1,4]oxazine-4-carbonyl)spiro[3.3]heptan-2-yl)-3-(4-methoxybenzyl)urea]
AC1.4 Human (human NAMPT; [1]): 0.1 µM | EC50 (human NAMPT; [2]): 1.6 µM | AC0.3 (endogenous NAMPT; [3]): 0.9 µM | EC50 (endogenous NAMPT; [4]): 0.8 µM

COc1ccc(CNC(=O)NC2CC3(C2)CC(C(=O)N(C)c2ccccc2)C3)cc1 (stereo not shown) [Compound 87, 6-(3-(4-methoxybenzyl)ureido)-N-methyl-N-phenylspiro[3.3]heptane-2-carboxamide]
AC1.4 Human (human NAMPT; [1]): 0.6 µM | EC50 (human NAMPT; [2]): 27.4 µM | AC0.3 (endogenous NAMPT; [3]): 3.4 µM | EC50 (endogenous NAMPT; [4]): 2.4 µM

O=C(NCc1ccc(Cl)cc1)NC1CC2(CC(Cc3cccnc3)C2)C1 (stereo not shown) [Compound 345, 1-(4-chlorobenzyl)-3-(6-(pyridin-3-ylmethyl)spiro[3.3]heptan-2-yl)urea]
AC1.4 Human (human NAMPT; [1]): 1.6 µM | EC50 (human NAMPT; [2]): 0.6 µM

Cc1ccc(CC2CC3(C2)CC(NC(=O)NCc2ccc(Cl)cc2)C3)cn1 (stereo not shown) [Compound 347, 1-(4-chlorobenzyl)-3-(6-((6-methylpyridin-3-yl)methyl)spiro[3.3]heptan-2-yl)urea]
AC1.4 Human (human NAMPT; [1]): 2.2 µM | EC50 (human NAMPT; [2]): 2.4 µM

O=C(NCc1ccc(Cl)cc1)NC1CC2(C1)CC(OCc1ccncc1)C2 (stereo not shown) [Compound 348, 1-(4-chlorobenzyl)-3-(6-(pyridin-4-ylmethoxy)spiro[3.3]heptan-2-yl)urea]
AC1.4 Human (human NAMPT; [1]): 5.0 µM | EC50 (human NAMPT; [2]): 5.9 µM

COc1ccc(CNC(=O)NC2CC3(C2)CC(OCc2ccncc2)C3)cc1 (stereo not shown) [Compound 349, 1-(4-methoxybenzyl)-3-(6-(pyridin-4-ylmethoxy)spiro[3.3]heptan-2-yl)urea]
AC1.4 Human (human NAMPT; [1]): 6.9 µM | EC50 (human NAMPT; [2]): 40.3 µM

O=C(NCc1ccc(Cl)cc1)NC1CC2(C1)CC(OCc1cccnc1)C2 (stereo not shown) [Compound 350, 1-(4-chlorobenzyl)-3-(6-(pyridin-3-ylmethoxy)spiro[3.3]heptan-2-yl)urea]
AC1.4 Human (human NAMPT; [1]): 1.7 µM | EC50 (human NAMPT; [2]): 6.1 µM

COc1ccc(CNC(=O)NC2CC3(C2)CC(OCc2cccnc2)C3)cc1 (stereo not shown) [Compound 351, 1-(4-methoxybenzyl)-3-(6-(pyridin-3-ylmethoxy)spiro[3.3]heptan-2-yl)urea]
AC1.4 Human (human NAMPT; [1]): 4.0 µM | EC50 (human NAMPT; [2]): 38.7 µM

O=C(NCc1ccc(Cl)cc1)NC1CC2(CC(CS(=O)(=O)c3ccccc3)C2)C1 (stereo not shown) [Compound 352, 1-(4-chlorobenzyl)-3-(6-((phenylsulfonyl)methyl)spiro[3.3]heptan-2-yl)urea]
AC1.4 Human (human NAMPT; [1]): 6.0 µM | EC50 (human NAMPT; [2]): 8 µM

O=C(NCc1ccc(Cl)cc1)NC1CC2(CC(CS(=O)(=O)c3cccnc3)C2)C1 (stereo not shown) [Compound 353, 1-(4-chlorobenzyl)-3-(6-((pyridin-3-ylsulfonyl)methyl)spiro[3.3]heptan-2-yl)urea]
AC1.4 Human (human NAMPT; [1]): 5.3 µM | EC50 (human NAMPT; [2]): 16.9 µM

O=C(NCc1ccc(Cl)cc1)N[C@H]1C[C@]2(CCN(C(=O)N3CCC(N4CCCCC4)CC3)C2)C1 [Compound 354, 1-((2r,4s)-6-([1,4′-bipiperidine]-1′-carbonyl)-6-azaspiro[3.4]octan-2-yl)-3-(4-chlorobenzyl)urea]
AC1.4 Human (human NAMPT; [1]): 4.2 µM
